Source: PubChem BioAssay (NCI)
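Briefly, cells in 96-well plates were exposed to five compound concentrations for 48 h, and endpoints were estimated by linear interpolation. At the GI50, growth is halved. TGI is the concentration that stops growth completely.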

Columns and labels:
Experiment in all cases: NCI-60 cell line screen, 48 h
CAKI-1 renal = tested on: CAKI-1 renal
COLO 205 colon = tested on: COLO 205 colon
DU-145 prostate = tested on: DU-145 prostate
HL-60(TB) leukemia = tested on: HL-60(TB) leukemia
HOP-92 NSCLC = tested on: HOP-92 NSCLC
KM12 colon = tested on: KM12 colon
NCI-H522 lung = tested on: NCI-H522 lung
RXF 393 renal = tested on: RXF 393 renal
SW-620 colon = tested on: SW-620 colon
SR leukemia = tested on: SR leukemia

Row | SMILES | GI50 (CAKI-1 renal) [µM] | TGI (CAKI-1 renal) [µM] | GI50 (COLO 205 colon) [µM] | TGI (COLO 205 colon) [µM] | GI50 (DU-145 prostate) [µM] | TGI (DU-145 prostate) [µM] | GI50 (HL-60(TB) leukemia) [µM] | TGI (HL-60(TB) leukemia) [µM] | GI50 (HOP-92 NSCLC) [µM] | TGI (HOP-92 NSCLC) [µM] | GI50 (KM12 colon) [µM] | TGI (KM12 colon) [µM] | GI50 (NCI-H522 lung) [µM] | TGI (NCI-H522 lung) [µM] | GI50 (RXF 393 renal) [µM] | TGI (RXF 393 renal) [µM] | GI50 (SW-620 colon) [µM] | TGI (SW-620 colon) [µM] | GI50 (SR leukemia) [µM] | TGI (SR leukemia) [µM]
1 | CCNCCNc1cc(-c2ccc(F)cc2)c(C#N)c2nc3ccccc3n12 | 4 | 15.4 | 2.32 | 5.74 | 4.01 | 14.9 | 2.09 | 4.36 | 2.82 | 8.12 | 8.37 | 21.1 | 2.93 | 9.43 | 1.71 | 3.44 | 2.95 | 10.1 | – | –
2 | N#Cc1nc(-c2ccccc2)oc1S(=O)(=O)N1CCOCC1 | 1.61 | 3.04 | 2.23 | 4.91 | 6.08 | 19.1 | 2.08 | 4.79 | 1.6 | 3.15 | 23.6 | 68 | 0.702 | 3 | 1.68 | 3.08 | 2.04 | 4.84 | – | –
3 | COc1ccc2c3c(c(OCCCN(C)C)nc2c1)-c1ccc(Cl)cc1C3=O | 11.4 | 23.6 | 5.57 | 26.6 | 6.08 | 19.1 | 18.9 | 64.2 | 1.78 | 11.8 | 4.01 | 18 | 7.1 | 24.1 | 7.24 | 20.1 | 1.56 | 12.9 | – | –
4 | CC(=O)N1CC(F)(F)c2c(Sc3ncc(N4CCC5(CC4)COC[C@H]5N)nc3N)cccc21 | 3.68 | 30 | 17.8 | 36.7 | 25.7 | > 100 | 18.3 | 36.4 | 0.259 | 3.64 | 22.1 | > 100 | – | – | 1.81 | 9.28 | 16.8 | 54.4 | 8.16 | 35.8
5 | O=C(/C=C/c1cccc(Cl)c1)c1ccc(Cl)cc1Cl | 8.94 | 18.2 | 12.2 | 40.6 | 9.59 | 23 | 25.3 | > 50 | 6.17 | 16.2 | 9.76 | 21.6 | 1.85 | 15.6 | – | – | 2.36 | 38.7 | 0.005 | 4.31
6 | CC[C@H](C)[C@H](NC(=O)C12C3C4C1C1C2C3C41NC(C)=O)C(=O)N(C)[C@H](C[C@@H](OC(C)=O)c1nc(C(=O)N[C@@H](Cc2ccccc2)C[C@H](C)C(=O)OC)cs1)C(C)C (stereo partly drawn) | > 10.8 | > 14.3 | 0.346 | 1.71 | 0.469 | > 9.88 | 0.0679 | 0.383 | > 14.3 | > 14.3 | 0.471 | > 14.3 | 0.0637 | 0.513 | – | – | 0.206 | > 14.3 | 0.0331 | > 14.3
7 | COc1ccc(C(=O)C=C2NCCN2)cc1 | – | > 100 | – | > 100 | – | – | – | > 100 | – | > 100 | – | > 100 | – | > 100 | – | > 100 | – | > 100 | – | > 100
8 | O=[N+]([O-])c1ccc(Cl)c(C2SCc3nc4ccccc4n32)c1 (stereo not drawn) | – | 76.1 | – | > 100 | – | – | – | 78.5 | – | 45.3 | – | > 100 | – | > 100 | – | > 100 | – | 88.3 | – | > 100
9 | COc1ccc(/C=C\c2cc(OC)c(OC)c(OC)c2)c(NS(=O)(=O)c2ccc(C)cc2)c1O | 0.0938 | > 100 | 0.723 | 3.89 | 0.0399 | – | 0.0338 | 2.06 | 0.102 | 27.5 | 0.0383 | – | 0.0377 | > 35 | – | – | 0.0447 | > 100 | 0.031 | > 51.5
10 | COc1ccc(NC(=O)c2cc(OC)c(OC)c(OC)c2)cc1O | – | – | 4.45 | > 100 | 3.96 | > 100 | 1.08 | 21.6 | 0.861 | > 100 | 0.792 | > 100 | – | – | 3.75 | 83.9 | 1.11 | > 100 | 0.313 | > 100
11 | COc1cc(C2C(C(=O)Nc3ccccc3)=C(C)NC(C)=C2C(=O)Nc2ccccc2)ccc1O | – | – | – | 60.4 | – | – | – | 54.2 | – | 88.5 | – | > 100 | – | – | – | > 100 | – | > 100 | – | 93.3
12 | CN(O)C(=O)Cc1ccccc1 | – | > 100 | – | > 100 | – | – | – | > 100 | – | > 100 | – | > 100 | – | > 100 | – | > 100 | – | > 100 | – | > 100
13 | COC(=O)C1=C(C(=O)OC)C2(C(=O)OC)OC1(OC)C(C1(C(=O)OC)C(C(=O)OC)=C1C(=O)OC)=C2C(=O)OC (stereo not drawn) | – | – | – | > 100 | – | – | – | > 100 | – | > 100 | – | > 100 | – | > 100 | – | > 100 | – | > 100 | – | > 100
14 | FC(F)(F)c1ccc(-c2cnc(Br)nc2NC2CCCCCC2)cc1 | 92.9 | > 100 | 83.3 | > 100 | > 100 | > 100 | 31.4 | > 100 | – | – | 52 | > 100 | 28.3 | > 100 | 24.9 | > 100 | 96.7 | > 100 | 30.5 | > 100
15 | CC#CC(=O)N1CCC[C@H]1c1nc(-c2ccc(C(=O)Nc3ccccn3)cc2)c2c(N)nccn12 | – | – | 85.4 | > 100 | 71 | > 100 | > 100 | > 100 | 25.1 | > 100 | > 72.2 | > 100 | 13.9 | > 100 | 61.7 | > 100 | > 100 | > 100 | 43.8 | > 100
